Consider eight molecules from patent US8841264B2, “Compositions” (DSM IP Assets B.V., priority 2006, dated 2014).

Where two headings read alike, the source gives them in different places.

The subject of assay [1] is nitric oxide production in RAW267.7 macrophages. Briefly: Inhibition of nitric oxide production in LPS-activated macrophages (Griess reaction). Type of assay: cell-based, murine. The following applies: for inhibition at 12.5 µM / % inhibition of NO production: 12.5 μmol/L; for inhibition at 3.125 µM: 3.125 μmol/L; for inhibition at 3.13 µM: 3.13 μmol/L. On the procedure: (§1) The anti-inflammatory effects combinations of OH-tyrosol or oleuropein and representatives of other groups of natural substances (isoflavones, catechins, phtalides, hydroxylated biphenyls) were evaluated in activated macrophages by determining the inhibition of the synthesis of nitric oxide and/or pro-inflammatory prostaglandins (PG). PGE2 plays a critical role in the inflammation process, while nitric oxide (NO) is a hallmark of inflammation in various chronic inflammatory diseases including various forms of arthritis, gastro-intestinal diseases and metabolic syndrome.
(§2) The anti inflammatory effect of compounds was tested in cellular assays using a murine macrophage indicator cell line, RAW267.7, which was purchased from American Type Culture Collection, (ATCC) and cultured in DMEM according to the protocol provided by ATCC. Cells (˜50,000/well) were seeded into flat-bottomed microtiter plates and cultured for one day. Cells were then starved in complete medium containing 0.25% FCS (D-025). After overnight culture, medium was removed and replaced by 100 μL of D-025 containing the test compounds at twice the final concentration. Subsequently, 100 μL of D-025 containing 2 μg/ml LPS was added (i.e. final LPS concentration of 1 μg/ml) and the cells cultured for 24 hours. Substances were usually tested in a concentration range from 0.2 to 50 μM (or μg/ml in the case of extracts) in two-fold dilution steps. Concentrations of nitrite which was generated from nitric oxide released by cells were determined by the Griess reaction using sodium nitrite as standard (see e.g Imai et al. Biochem Biophys Res Comm, 197, 105 [1993]). Briefly, 50 μl of supernatant was mixed with Griess reagent 1 (25 μL) and Griess reagent 2 (25 μL), centrifuged and the optical density at 540 nm determined. PGE2 secreted into the cell culture medium was determined by EIA obtained from Cayman Chemicals ([…]) and used according to the manufacturer's instructions. IC50 values were calculated using a […] least-square fitting equation [y=A+((B−A)/(1+((C−x)^D))] for best-fit curves (Excel fit software program).
(§3) In a methodological approach that was similar to that described for Example 1, the synergistic effect of lycopene, resveratrol and OH-tyrosol was tested on the inflammatory response. Dose-dependent effects of each substance on the production of nitric oxide or PGE2 in macrophages were determined.
For orientation: Nitrite, measured by Griess reagent, commonly stands in for NO production.

Assay [2] relates to PGE2 production in RAW267.7 macrophages. In words: Inhibition of PGE2 production in LPS-activated macrophages (EIA). Type of assay: cell-based, murine. On the procedure:
as §1, §2, §3

Setting [3] is: Mus musculus, Macrophage, single substance, RAW267.7, LPS 1 μg/ml, 24 hours, read-out: IC50 Nitric Oxide.
The mark [4] stands for this setting: Mus musculus, Macrophage, single substance, RAW267.7, LPS 1 μg/ml, 24 hours, read-out: IC50 PGE2.
Where [5] appears, read: Mus musculus, Macrophage, read-out: % inhibition of NO production.
Setting [6] is: Mus musculus, Macrophage, Example 2, read-out: IC50 of pure compound (NO production).
Where [7] appears, read: Mus musculus, Macrophage, Example 2, read-out: IC50 of pure compound (PGE2 production).
Setting [8] is: Mus musculus, Macrophage, Example 2, read-out: % inhibition of NO production.

With `O=c1c(-c2ccc(O)cc2)coc2cc(O)cc(O)c12` [Genistein, 4′,5,7-trihydroxyisoflavone], the inhibition (in general, the change of the read-out against control, counted positive when it falls) at 25 µM in assay [1] (Mus musculus, Macrophage, 25 μmol/L, read-out: % inhibition of NO production) amounted to 40%. Moreover, the figures for the IC50 in assay [1] (setting [3]) and in assay [2] (setting [4]) were 37 ± 2 µM and 4.6 ± 0.6 µM, respectively.

For the molecule `C=CCc1ccc(O)c(-c2ccc(O)c(CC=C)c2)c1` [Honokiol, 3′,5-Diallyl-2,4′-biphenyldiol], the inhibition at 12.5 µM in assay [1] (setting [5]) came out at 66%. Besides, the figures for the IC50 in assay [1] (setting [3]) and in assay [2] (setting [4]) were 8 ± 1 µM and 1 ± 0.2 µM, respectively.

Take `CCC/C=C1\OC(=O)C2=C1CCC=C2` [Ligustilide, ligustilide]: in assay [1] (setting [5]), the inhibition at 3.125 µM amounted to 28% and the inhibition at 12.5 µM was 38%. In assay [1] (setting [3]), the IC50 (usually the concentration needed to halve the response being measured) came out at 15 ± 1 µM. The IC50 in assay [2] (setting [4]) came to 10 ± 2 µM.

Take `CC(C)=CCC/C(C)=C/C=C/C(C)=C/C=C/C(C)=C/C=C/C=C(C)/C=C/C=C(C)/C=C/C=C(\C)CCC=C(C)C` [Lycopene (Ly), ψ,ψ carotene]: in assay [1] (Mus musculus, Macrophage, Example 2, 0.5 μmol/L, read-out: % inhibition of NO production), the inhibition at 0.5 µM is 4%. Moreover, the concentration for half-maximal inhibition (IC50) in assay [1] (setting [6]) and in assay [2] (setting [7]) was greater than 8 µM throughout. Further, the “anti-inflammatory effect (production of nitric oxide or PGE2 in macrophages)” value in assay [1] (at <8 μmol/L) was “no anti-inflammatory effect”. Also, the inhibition at 0.25 µM in assay [2] (Mus musculus, Macrophage, Example 2, 0.25 μmol/L) is -5%.

For the molecule `OCCc1ccc(O)c(O)c1` [OH-Tyrosol, 2-(3,4-dihydroxyphenyl)-ethanol], the “% inhibition of NO production” value in assay [1] came out at 33%. In addition, the inhibition at 6.25 µM in assay [1] (Mus musculus, Macrophage, 6.25 μmol/L, read-out: % inhibition of NO production) stood at 7%. Further, the inhibition at 3.13 µM in assay [1] (setting [8]) was -4%. In addition, the IC50 in assay [1] (setting [6]) was 24.1 µM; in assay [1] (setting [3]), 28 ± 2 µM; in assay [2] (setting [7]), 22.7 µM; in assay [2] (setting [4]), 24 ± 3 µM.

On to `C/C=C1/[C@H](O[C@@H]2O[C@H](CO)[C@@H](O)[C@H](O)[C@H]2O)OC=C(C(=O)OC)[C@H]1CC(=O)OCCc1ccc(O)c(O)c1` [Oleuropein, oleuropein], for which, in assay [1] (setting [5]), the inhibition at 3.125 µM was 2% and the inhibition at 12.5 µM was determined as 8%. In assay [1] (setting [3]), the IC50 is 52 ± 5 µM. The IC50 in assay [2] (setting [4]) worked out at 60 ± 10 µM.

On to `Oc1ccc(/C=C/c2cc(O)cc(O)c2)cc1` [Resveratrol, (trans)-resveratrol], for which the inhibition at 3.13 µM in assay [1] (setting [8]) is -2%. Further, the 50% inhibitory concentration (IC50) turned out to be 19.3 µM in assay [1] (setting [6]), 31 ± 2 µM in assay [1] (setting [3]), 23.4 µM in assay [2] (setting [7]) and 24 ± 2 µM in assay [2] (setting [4]).

Consider (−)-epigallocatechin gallate [EGCG], for which the “% inhibition of NO production” value in assay [1] was 12%. Besides, the 50% inhibitory concentration (IC50) in assay [1] (single substance, RAW267.7, LPS 1 μg/ml, 24 hours, read-out: IC50 Nitric Oxide) worked out at 33 ± 2 µM; in assay [2] (single substance, RAW267.7, LPS 1 μg/ml, 24 hours, read-out: IC50 PGE2), 35 ± 3 µM.
